≈ marks a conversion by molar mass, not a printed value. Blank lines part the entries; values can stand above or below the compound they belong to.
Assays:
Assay in all cases: In vitro antibacterial evaluation: minimum inhibitory concentration (MIC), broth dilution method
Type in all cases: cell-based
[1] = tested on: Staphylococcus sp.; settings: broth dilution, 18 hours at 35° C.
In short: (§1)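 Susceptibility determined by NCCLS-recommended broth dilution (M7-A2), Muller-Hinton II […]. Concentration span 64-0.06 μg/mL, inoculum 5×10^5 CFU/mL. Isolates include strains resistant to methicillin, penicillin and/or vancomycin.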

[2] = tested on: Streptococcus sp.; settings: for MIC Streptococcus pneumoniae (ATCC 6301): strain ATCC 6301; for MIC Streptococcus pneumoniae (GC 1894): strain GC 1894; for MIC Streptococcus pyogenes (GC 4563): strain GC 4563; for MIC Streptococcus agalactiae (GC 4564): strain GC 4564
In short: as §1

[3] = tested on: Enterococcus sp.; settings: for MIC Enterococcus faecalis (GC 2242): strain GC 2242; for MIC Enterococcus faecalis (GC 2691): strain GC 2691; for MIC Enterococcus faecalis (GC 3059): strain GC 3059
In short: as §1

[4] = tested on: Escherichia coli; settings: for MIC Escherichia coli (ATCC 25922): strain ATCC 25922; for MIC Escherichia coli (GC 4559): strain GC 4559
In short: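 Values are minimum inhibitory concentrations, meaning the smallest antibiotic concentration that stops growth of the organism. They come from broth dilution in Muller-Hinton II […] per NCCLS guidance (M7-A2), using 5×10^5 CFU/mL and concentrations from 64 to 0.06 μg/mL.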

[5] = broth dilution, inoculum 5×10^5 CFU/mL, 18 hours at 35° C.

MIC Coagulase Negative Staphylococcus (GC 4547) ([1]; 5×10^5 CFU/mL): <0.5 to 2 µg/mL
MIC Coagulase Negative Staphylococcus (GC 4548) ([1]; 5×10^5 CFU/mL): <0.5 to 1 µg/mL
MIC Coagulase Negative Staphylococcus (GC 4549) ([1]; 5×10^5 CFU/mL): <0.5 to 1 µg/mL
MIC Coagulase Negative Staphylococcus (GC 4551) ([1]; 5×10^5 CFU/mL): <0.5 to 1 µg/mL
MIC Coagulase Negative Staphylococcus (GC 6257) ([1]; 5×10^5 CFU/mL): 1 µg/mL (≈ 0.725 µM)
MIC Coagulase Negative Staphylococcus (ID-3941) ([1]; 5×10^5 CFU/mL): <0.5 µg/mL
MIC Staphylococcus aureus (GC 3051) ([1]; 5×10^5 CFU/mL): 0.5 µg/mL (≈ 0.362 µM)
MIC Staphylococcus aureus (GC 3053) ([1]; 5×10^5 CFU/mL): 0.5 µg/mL (≈ 0.362 µM)
MIC Staphylococcus aureus (GC 4545) ([1]; 5×10^5 CFU/mL): 0.5 to 1 µg/mL
MIC Staphylococcus aureus (GC 3051) ([1]; strain GC 3051): 0.5 µg/mL (≈ 0.362 µM)
MIC Staphylococcus aureus (GC 3053) ([1]; strain GC 3053): 0.5 µg/mL (≈ 0.362 µM)
MIC Staphylococcus aureus (GC 4545) ([1]; strain GC 4545): 0.5 to 1 µg/mL
MIC Coagulase Negative Staphylococcus (GC 4547) ([1]; strain GC 4547): <0.5 to 2 µg/mL
MIC Coagulase Negative Staphylococcus (GC 4548) ([1]; strain GC 4548): <0.5 to 1 µg/mL
MIC Coagulase Negative Staphylococcus (GC 4549) ([1]; strain GC 4549): <0.5 to 1 µg/mL
MIC Coagulase Negative Staphylococcus (GC 4551) ([1]; strain GC 4551): <0.5 to 1 µg/mL
MIC Coagulase Negative Staphylococcus (GC 6257) ([1]; strain GC 6257): 1 µg/mL (≈ 0.725 µM)
MIC Coagulase Negative Staphylococcus (ID-3941) ([1]; strain ID-3941): <0.5 µg/mL
MIC Streptococcus pneumoniae (ATCC 6301) [2]: 0.12 µg/mL (≈ 0.087 µM)
MIC Streptococcus pneumoniae (GC 1894) [2]: 0.12 µg/mL (≈ 0.087 µM)
MIC Streptococcus pyogenes (GC 4563) [2]: >0.12 µg/mL
MIC Streptococcus agalactiae (GC 4564) [2]: <0.12 µg/mL
MIC Streptococcus pyogenes (ID-3187) ([2]; strain ID-3187): <0.5 µg/mL
MIC Enterococcus avium (GC 4558) ([3]; Enterococcus avium (GC 4558), broth dilution, 18 hours at 35° C.): 0.5 to 1 µg/mL
MIC Enterococcus faecalis (ATCC 29212) ([3]; Enterococcus faecalis (ATCC 29212), broth dilution, 18 hours at 35° C.): 0.5 to 1 µg/mL
MIC Enterococcus faecalis (GC 4554) ([3]; Enterococcus faecalis (GC 4554), broth dilution, 18 hours at 35° C.): 0.5 to 1 µg/mL
MIC Enterococcus faecalis (GC 6189) ([3]; Enterococcus faecalis (GC 6189), broth dilution, 18 hours at 35° C.): 0.5 µg/mL (≈ 0.362 µM)
MIC Enterococcus faecium (GC 2243) ([3]; Enterococcus faecium (GC 2243), broth dilution, 18 hours at 35° C.): <0.5 to 1 µg/mL
MIC Enterococcus faecium (GC 4556) ([3]; Enterococcus faecium (GC 4556), broth dilution, 18 hours at 35° C.): 1 to 2 µg/mL
MIC Enterococcus faecium (GC 4557) ([3]; Enterococcus faecium (GC 4557), broth dilution, 18 hours at 35° C.): 1 to 2 µg/mL
MIC Enterococcus faecalis (ATCC 29212) ([3]; strain ATCC 29212): 0.5 to 1 µg/mL
MIC Enterococcus faecalis (GC 2242) [3]: 0.5 to 1 µg/mL
MIC Enterococcus faecium (GC 2243) ([3]; strain GC 2243): <0.5 to 1 µg/mL
MIC Enterococcus faecalis (GC 2691) [3]: 0.5 µg/mL (≈ 0.362 µM)
MIC Enterococcus faecalis (GC 3059) [3]: 0.5 µg/mL (≈ 0.362 µM)
MIC Enterococcus faecalis (GC 4554) ([3]; strain GC 4554): 0.5 to 1 µg/mL
MIC Enterococcus faecium (GC 4556) ([3]; strain GC 4556): 1 to 2 µg/mL
MIC Enterococcus faecium (GC 4557) ([3]; strain GC 4557): 1 to 2 µg/mL
MIC Enterococcus avium (GC 4558) ([3]; strain GC 4558): 0.5 to 1 µg/mL
MIC Enterococcus faecalis (GC 6189) ([3]; strain GC 6189): 0.5 µg/mL (≈ 0.362 µM)
MIC Escherichia coli (ATCC 25922) [4]: >64 µg/mL
MIC Escherichia coli (GC 4559) [4]: >64 µg/mL
MIC Escherichi coli (GC 4560) ([4]; strain GC 4560): 0.5 to 2 µg/mL
SMILES: CC(c1ccccc1)C1NC(=O)CNC(=O)C(CO)NC(=O)C(C(O)C2CNC(=N)N2C2OC(CO)C(O)C(O)C2O)NC(=O)C(C(O)C2CNC(=NC(=O)C(C)(C)C)N2)NC(=O)C(Cc2ccc(OC3OC(CO)C(OC4OC(CO)C(O)C(O)C4O)C(O)C3O)cc2)NC1=O (stereo not drawn) [Example 155, Cyclo[glycyl-β-methylphenylalanyl-O-(4-O-hexopyranosylhexopyranosyl)tyrosyl-3-[2-[(2,2-dimethylpropanoyl)imino]imidazolidin-4-yl]seryl-3-(3-hexopyranosyl-2-iminoimidazolidin-4-yl)serylseryl]]
MIC Staphylococcus haemolyticus (GC 4546) ([1]; 5×10^5 CFU/mL): <0.5 to 1 µg/mL
MIC Staphylococcus haemolyticus (GC 4546) ([1]; strain GC 4546): <0.5 to 1 µg/mL

MIC Coagulase Negative Staphylococcus (GC 4547) ([1]; 5×10^5 CFU/mL): 16 µg/mL (≈ 10.9 µM)
MIC Coagulase Negative Staphylococcus (GC 4548) ([1]; 5×10^5 CFU/mL): 8 µg/mL (≈ 5.47 µM)
MIC Coagulase Negative Staphylococcus (GC 4549) ([1]; 5×10^5 CFU/mL): 8 µg/mL (≈ 5.47 µM)
MIC Coagulase Negative Staphylococcus (GC 4551) ([1]; 5×10^5 CFU/mL): 32 µg/mL (≈ 21.9 µM)
MIC Coagulase Negative Staphylococcus (GC 6257) ([1]; 5×10^5 CFU/mL): 4 µg/mL (≈ 2.74 µM)
MIC Staphylococcus aureus (ATCC 29213) ([1]; 5×10^5 CFU/mL): 32 µg/mL (≈ 21.9 µM)
MIC Staphylococcus aureus (GC 1131) ([1]; 5×10^5 CFU/mL): 32 µg/mL (≈ 21.9 µM)
MIC Staphylococcus aureus (GC 3051) ([1]; 5×10^5 CFU/mL): 16 µg/mL (≈ 10.9 µM)
MIC Staphylococcus aureus (GC 3053) ([1]; 5×10^5 CFU/mL): 32 µg/mL (≈ 21.9 µM)
MIC Staphylococcus aureus (GC 4541) ([1]; 5×10^5 CFU/mL): 16 µg/mL (≈ 10.9 µM)
MIC Staphylococcus aureus (GC 4542) ([1]; 5×10^5 CFU/mL): 32 µg/mL (≈ 21.9 µM)
MIC Staphylococcus aureus (GC 4544) ([1]; 5×10^5 CFU/mL): 32 µg/mL (≈ 21.9 µM)
MIC Staphylococcus aureus (GC 4545) ([1]; 5×10^5 CFU/mL): 16 µg/mL (≈ 10.9 µM)
MIC Staphylococcus aureus-SMITH (GC 4543) ([1]; 5×10^5 CFU/mL): 16 µg/mL (≈ 10.9 µM)
MIC Staphylococcus aureus (ATCC 29213) ([1]; strain ATCC 29213): 32 µg/mL (≈ 21.9 µM)
MIC Staphylococcus aureus (GC 1131) ([1]; strain GC 1131): 32 µg/mL (≈ 21.9 µM)
MIC Staphylococcus aureus (GC 3051) ([1]; strain GC 3051): 16 µg/mL (≈ 10.9 µM)
MIC Staphylococcus aureus (GC 3053) ([1]; strain GC 3053): 32 µg/mL (≈ 21.9 µM)
MIC Staphylococcus aureus (GC 4541) ([1]; strain GC 4541): 16 µg/mL (≈ 10.9 µM)
MIC Staphylococcus aureus (GC 4542) ([1]; strain GC 4542): 32 µg/mL (≈ 21.9 µM)
MIC Staphylococcus aureus-SMITH (GC 4543) ([1]; strain GC 4543): 16 µg/mL (≈ 10.9 µM)
MIC Staphylococcus aureus (GC 4544) ([1]; strain GC 4544): 32 µg/mL (≈ 21.9 µM)
MIC Staphylococcus aureus (GC 4545) ([1]; strain GC 4545): 16 µg/mL (≈ 10.9 µM)
MIC Coagulase Negative Staphylococcus (GC 4547) ([1]; strain GC 4547): 16 µg/mL (≈ 10.9 µM)
MIC Coagulase Negative Staphylococcus (GC 4548) ([1]; strain GC 4548): 8 µg/mL (≈ 5.47 µM)
MIC Coagulase Negative Staphylococcus (GC 4549) ([1]; strain GC 4549): 8 µg/mL (≈ 5.47 µM)
MIC Coagulase Negative Staphylococcus (GC 4551) ([1]; strain GC 4551): 32 µg/mL (≈ 21.9 µM)
MIC Coagulase Negative Staphylococcus (GC 6257) ([1]; strain GC 6257): 4 µg/mL (≈ 2.74 µM)
MIC Streptococcus pneumoniae (ATCC 6301) [2]: 4 µg/mL (≈ 2.74 µM)
MIC Streptococcus pneumoniae (GC 1894) [2]: 4 µg/mL (≈ 2.74 µM)
MIC Streptococcus pyogenes (GC 4563) [2]: 8 µg/mL (≈ 5.47 µM)
MIC Streptococcus agalactiae (GC 4564) [2]: 16 µg/mL (≈ 10.9 µM)
MIC Streptococcus pneumoniae (GC 4565) ([2]; strain GC 4565): 4 µg/mL (≈ 2.74 µM)
MIC Enterococcus avium (GC 4558) [3, 5]: 64 µg/mL (≈ 43.8 µM)
MIC Enterococcus faecalis (ATCC 29212) [3, 5]: >64 µg/mL
MIC Enterococcus faecalis (GC 4552) [3, 5]: >64 µg/mL
MIC Enterococcus faecalis (GC 4553) [3, 5]: >64 µg/mL
MIC Enterococcus faecalis (GC 4554) [3, 5]: >64 µg/mL
MIC Enterococcus faecalis (GC 6189) [3, 5]: >64 µg/mL
MIC Enterococcus faecium (GC 2243) [3, 5]: 64 µg/mL (≈ 43.8 µM)
MIC Enterococcus faecium (GC 4556) [3, 5]: >64 µg/mL
MIC Enterococcus faecium (GC 4557) [3, 5]: 8 µg/mL (≈ 5.47 µM)
MIC Enterococcus faecalis (ATCC 29212) ([3]; strain ATCC 29212): >64 µg/mL
MIC Enterococcus faecalis (GC 2242) [3]: 64 µg/mL (≈ 43.8 µM)
MIC Enterococcus faecium (GC 2243) ([3]; strain GC 2243): 64 µg/mL (≈ 43.8 µM)
MIC Enterococcus faecalis (GC 2691) [3]: >64 µg/mL
MIC Enterococcus faecalis (GC 3059) [3]: >64 µg/mL
MIC Enterococcus faecalis (GC 4552) ([3]; strain GC 4552): >64 µg/mL
MIC Enterococcus faecalis (GC 4553) ([3]; strain GC 4553): >64 µg/mL
MIC Enterococcus faecalis (GC 4554) ([3]; strain GC 4554): >64 µg/mL
MIC Enterococcus faecium (GC 4556) ([3]; strain GC 4556): >64 µg/mL
MIC Enterococcus faecium (GC 4557) ([3]; strain GC 4557): 8 µg/mL (≈ 5.47 µM)
MIC Enterococcus avium (GC 4558) ([3]; strain GC 4558): 64 µg/mL (≈ 43.8 µM)
MIC Enterococcus faecalis (GC 6189) ([3]; strain GC 6189): >64 µg/mL
MIC Escherichia coli (ATCC 25922) [4]: >64 µg/mL
MIC Escherichia coli (GC 4559) [4]: >64 µg/mL
SMILES: CC(c1ccccc1)C1NC(=O)CNC(=O)C(CO)NC(=O)C(C(O)C2CNC(=N)N2C2OC(CO)C(O)C(O)C2O)NC(=O)C(C(O)C2CNC(=N)N2)NC(=O)C(Cc2ccc(OC3OC(CO)C(OC4OC5COC(c6ccc(S(C)(=O)=O)cc6)OC5C(O)C4O)C(O)C3O)cc2)NC1=O (stereo not drawn) [Example 157, Cyclo[glycyl-β-methylphenylalanyl-O-[4-O-[4,6-O-(4-(methylsulfonyl)benzylidene)hexopyranosyl]hexopyranosyl]tyrosyl-3-(2-iminoimidazolidin-4-yl)seryl-3-(3-hexopyranosyl-2-iminoimidazolidin-4-yl)serylseryl]]
MIC Staphylococcus haemolyticus (GC 4546) ([1]; 5×10^5 CFU/mL): 16 µg/mL (≈ 10.9 µM)
MIC Staphylococcus haemolyticus (GC 4546) ([1]; strain GC 4546): 16 µg/mL (≈ 10.9 µM)
